target: T1, RANTES/MIP-1α chemokine receptor (CCR1) in THP-1 cell membranes (Homo sapiens, UniProt P32246); experiment: Receptor binding assay: 125I-RANTES or 125I-MIP-1α binding to THP-1 cell membranes; settings: inhibitor concentration required for 50% inhibition of specific binding; 125I-RANTES or 125I-MIP-1α as ligand, THP-1 cell membranes; read-out: IC50
T1 construct: Membranes were prepared from THP-1 cells (ATCC #TIB202); host or cells: THP-1 cells (membrane preparation)
T1 sequence (P32246 1-355): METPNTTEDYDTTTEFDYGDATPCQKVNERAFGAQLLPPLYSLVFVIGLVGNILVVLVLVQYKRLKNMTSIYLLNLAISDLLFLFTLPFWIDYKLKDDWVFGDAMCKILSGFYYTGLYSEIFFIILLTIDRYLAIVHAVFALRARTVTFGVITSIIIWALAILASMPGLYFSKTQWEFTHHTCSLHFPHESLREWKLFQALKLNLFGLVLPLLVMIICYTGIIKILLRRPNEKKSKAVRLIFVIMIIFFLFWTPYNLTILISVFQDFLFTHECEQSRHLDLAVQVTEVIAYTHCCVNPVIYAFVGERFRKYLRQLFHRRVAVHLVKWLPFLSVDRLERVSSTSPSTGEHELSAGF

Row | IC50 | Structure (SMILES)
1 | < 1 µM | CC1CN(CCC=C2c3cc(C(C)(C)O)ccc3OCc3ncccc32)CCN1c1ccc(Cl)cc1 (stereo not drawn) [Example 519, 2-(5-{3-[4-(4-Chloro-phenyl)-3-methyl-piperazin-1-yl]-propylidene}-5,11-dihydro-10-oxa-1-aza-dibenzo[a,d]cyclohepten-7-yl)-propan-2-ol]
2 | < 1 µM | CCN(Cc1ccc(Cl)cc1)[C@@H]1CCN(CCC=C2c3cc(C(C)(C)O)ccc3OCc3ncccc32)C1 [Example 524, (R)-2-[5-(3-{3-[(4-Chloro-benzyl)-ethyl-amino]-pyrrolidin-1-yl}-propylidene)-5,11-dihydro-10-oxa-1-aza-dibenzo[a,d]cyclohepten-7-yl]-propan-2-ol]
3 | < 20 µM | CCN(c1ccc(Cl)cc1)[C@@H]1CCN(CCC=C2c3cc(C(C)(C)O)ccc3OCc3ncccc32)C1 [Example 525, (R)-2-[5-(3-{3-[(4-Chloro-phenyl)-ethyl-amino]-pyrrolidin-1-yl}-propylidene)-5,11-dihydro-10-oxa-1-aza-dibenzo[a,d]cyclohepten-7-yl]-propan-2-ol]
4 | < 1 µM | CCN(Cc1ccc(Cl)cc1)[C@@H]1CCN(CCC=C2c3cc(C(=O)O)ccc3OCc3ncccc32)C1 [Example 527, (R)-5-(3-{3-[(4-Chloro-benzyl)-ethyl-amino]-pyrrolidin-1-yl}-propylidene)-5,11-dihydro-10-oxa-1-aza-dibenzo[a,d]cycloheptene-7-carboxylic acid]
5 | < 10 µM | CCN(CCc1ccc(Cl)cc1)[C@@H]1CCN(CCC=C2c3cc(C(C)(C)O)ccc3OCc3ncccc32)C1 [Example 528]
6 | < 20 µM | CC(C)(O)c1ccc2c(c1)C(=CCCN1CC[C@H](OCc3ccc(Cl)cc3)C1)c1cccnc1CO2 [Example 529, (S)-2-(5-{3-[3-(4-Chloro-benzyloxy)-pyrrolidin-1-yl]-propylidene}-5,11-dihydro-10-oxa-1-aza-dibenzo[a,d]cyclohepten-7-yl)-propan-2-ol]
7 | < 20 µM | CC(C)(O)c1ccc2c(c1)C(=CCCN1CCC(C(=O)NCc3ccc(Cl)cc3)C1)c1cccnc1CO2 (stereo not drawn) [Example 530]
8 | < 1 µM | CCN(C(=O)C1CCN(CCC=C2c3cc(C(C)(C)O)ccc3OCc3ncccc32)C1)c1ccc(Cl)cc1 (stereo not drawn) [Example 531, 1-{3-[7-(1-Hydroxy-1-methyl-ethyl)-11H-10-oxa-1-aza-dibenzo[a,d]cyclohepten-5-ylidene]-propyl}-pyrrolidine-3-carboxylic acid (4-chloro-phenyl)-ethyl-amide]
9 | < 2 µM | CC(C)(O)c1ccc2c(c1)C(=CCCN1CC[C@@H](N3Cc4ccc(Cl)cc4C3)C1)c1cccnc1CO2 [Example 532]
10 | < 10 µM | CC(C)(O)c1ccc2c(c1)C(=CCCN1CC[C@@H](N(Cc3ccc(Cl)cc3)C(N)=O)C1)c1cccnc1CO2 [Example 533, (R)-1-(4-Chloro-benzyl)-1-(1-{3-[7-(1-hydroxy-1-methyl-ethyl)-11H-10-oxa-1-aza-dibenzo[a,d]cyclohepten-5-ylidene]-propyl}-pyrrolidin-3-yl)urea]
11 | < 1 µM | CC(C)(O)c1ccc2c(c1)C(=CCCN1CC[C@@H](N3CC(=O)Nc4cc(Cl)ccc4C3)C1)c1cccnc1CO2 [Example 534, (R)-8-Chloro-4-(1-{3-[7-(-hydroxy-1-methyl-ethyl)-11H-10-oxa-1-aza-dibenzo[a,d]cyclohepten-5-ylidene]-propyl}-pyrrolidine-3-yl)-1,3,4,5-tetrahydro-benzo[e][1,4]diazepin-2-one]
12 | < 10 µM | CCN1C(=O)CN([C@@H]2CCN(CCC=C3c4cc(C(C)(C)O)ccc4OCc4ncccc43)C2)Cc2ccc(Cl)cc21 [Example 535, (R)-8-Chloro-1-ethyl-4-(1-{3[7-(-hydroxy-1-methyl-ethyl)-11H-10-oxa-1-aza-dibenzo[a,d]cyclohepten-5-ylidene]-propyl}-pyrrolidine-3-yl)-1,3,4,5-tetrahydro-benzo[e][1,4]diazepin-2-one]
13 | < 1 µM | COC(=O)CN(Cc1ccc(Cl)cc1)C1CCN(CCC=C2c3cc(C(C)(C)O)ccc3OCc3ncccc32)C1 (stereo not drawn) [Example 536, [(4-Chloro-benzyl)-(1-{3-[7-(1-hydroxy-1-methyl-ethyl)-11H-10-oxa-1-aza-dibenzo[a,d]cyclohepten-5-ylidene]-propyl}-pyrrolidin-3-yl)-amino]-acetic acid methyl ester]
14 | < 1 µM | CC(C)(O)c1ccc2c(c1)C(=CCCN1CCC(N(CC(=O)O)Cc3ccc(Cl)cc3)C1)c1cccnc1CO2 (stereo not drawn) [Example 537, [(4-Chloro-benzyl)-(1-{3-[7-(1-hydroxy-1-methyl-ethyl)-11H-10-oxa-1-aza-dibenzo[a,d]cyclohepten-5-ylidene]-propyl}-pyrrolidin-3-yl)-amino]-acetic acid]

Row | Structure (SMILES) | IC50
15 | CCOC(=O)C(C)(C)Oc1ccc2c(c1)C(=CCCN1CCC(O)(c3ccc(Cl)cc3)C(C)(C)C1)c1cccnc1CO2 (stereo not drawn) [Example 510, 2-(5-{3-[4-(4-Chloro-phenyl)-4-hydroxy-3,3-dimethyl-piperidin-1-yl]-propylidene}-5,11-dihydro-10-oxa-1-aza-dibenzo[a,d]cyclohepten-7-yloxy)-2-methyl-propionic acid ethyl ester] | < 1 µM
16 | CC(C)(CO)Oc1ccc2c(c1)C(=CCCN1CCC(O)(c3ccc(Cl)cc3)C(C)(C)C1)c1cccnc1CO2 (stereo not drawn) [Example 511, 4-(4-Chloro-phenyl)-1-{3-[7-(2-hydroxy-1,1-dimethyl-ethoxy)-11H-10-oxa-1-aza-dibenzo[a,d]cyclohepten-5-ylidene]-propyl}-3,3-dimethyl-piperidin-4-ol] | < 1 µM
17 | CC(C)(Oc1ccc2c(c1)C(=CCCN1CCC(O)(c3ccc(Cl)cc3)C(C)(C)C1)c1cccnc1CO2)C(=O)O (stereo not drawn) [Example 512, 2-(5-{3-[4-(4-Chloro-phenyl)-4-hydroxy-3,3-dimethyl-piperidin-1-yl]-propylidene}-5,11-dihydro-10-oxa-1-aza-dibenzo[a,d]cyclohepten-7-yloxy)-2-methyl-propionic acid] | < 1 µM
18 | CC(C)(Oc1ccc2c(c1)C(=CCCN1CCC(O)(c3ccc(Cl)cc3)C(C)(C)C1)c1cccnc1CO2)C(N)=O (stereo not drawn) [Example 513, 2-(5-{3-[4-(4-Chloro-phenyl)-4-hydroxy-3,3-dimethyl-piperidin-1-yl]-propylidene}-5,11-dihydro-10-oxa-1-aza-dibenzo[a,d]cyclohepten-7-yloxy)-2-methyl-propionamide] | < 1 µM
19 | COC(=O)COc1ccc2c(c1)C(=CCCN1CCC(O)(c3ccc(Cl)cc3)C(C)(C)C1)c1cccnc1CO2 (stereo not drawn) [Example 514, (5-{3-[4-(4-Chloro-phenyl)-4-hydroxy-3,3-dimethyl-piperidin-1-yl]-propylidene}-5,11-dihydro-10-oxa-1-aza-dibenzo[a,d]cyclohepten-7-yloxy)-acetic acid methyl ester] | < 1 µM
20 | CC1(C)CN(CCC=C2c3cc(OCC(=O)O)ccc3OCc3ncccc32)CCC1(O)c1ccc(Cl)cc1 (stereo not drawn) [Example 515, (5-{3-[4-(4-Chloro-phenyl)-4-hydroxy-3,3-dimethyl-piperidin-1-yl]-propylidene}-5,11-dihydro-10-oxa-1-aza-dibenzo[a,d]cyclohepten-7-yloxy)-acetic acid] | < 1 µM
21 | CC1(C)CN(CCC=C2c3cc(OCC(N)=O)ccc3OCc3ncccc32)CCC1(O)c1ccc(Cl)cc1 (stereo not drawn) [Example 516, 2-(5-{3-[4-(4-Chloro-phenyl)-4-hydroxy-3,3-dimethyl-piperidin-1-yl]-propylidene}-5,11-dihydro-10-oxa-1-aza-dibenzo [a,d]cyclohepten-7-yloxy)-acetamide] | < 1 µM
22 | CC(C)(O)COc1ccc2c(c1)C(=CCCN1CCC(O)(c3ccc(Cl)cc3)C(C)(C)C1)c1cccnc1CO2 (stereo not drawn) [Example 517, 4-(4-Chloro-phenyl)-1-{3-[7-(2-hydroxy-2-methyl-propoxy)-11H-10-oxa-1-aza-dibenzo[a,d]cyclohepten-5-ylidene]-propyl}-3,3-dimethyl-piperidin-4-ol] | < 1 µM
23 | CC1(C)CN(CCC=C2c3cc(CC(O)CO)ccc3OCc3ncccc32)CCC1(O)c1ccc(Cl)cc1 (stereo not drawn) [Example 518, 3-(5-{3-[4-(4-Chloro-phenyl)-4-hydroxy-3,3-dimethyl-piperidin-1-yl]-propylidene}-5,11-dihydro-10-oxa-1-aza-dibenzo[a, d]cyclohepten-7-yl)propane-1,2-diol] | < 1 µM
24 | CC(C)(O)c1ccc2c(c1)C(=CCCN1CCC3(CC1)OC(=O)Nc1ccc(Cl)cc13)c1cccnc1CO2 [Example 520] | < 1 µM
25 | CC(C)(O)c1ccc2c(c1)C(=CCCN1CCC(C)(c3ccccc3Cl)CC1)c1cccnc1CO2 [Example 521, 2-(5-{3-[4-(2-Chloro-phenyl)-4-methyl-piperidin-1-yl]-propylidene}-5,11-dihydro-10-oxa-1-aza-dibenzo[a,d]cyclohepten-7-yl)-propan-2-ol] | < 1 µM
26 | CC1CN(CCC=C2c3cc(OCC(C)(C)O)ccc3OCc3ncccc32)CCC1(O)c1ccc(Cl)cc1 (stereo not drawn) [Example 522, 4-(4-Chloro-phenyl)-1-{3-[7-(2-hydroxy-2-methyl-propoxy)-11H-10-oxa-1-aza-dibenzo[a,d]cyclohepten-5-ylidene]-propyl}-3-methyl-piperidin-4-ol] | < 1 µM
27 | CC(C)(O)c1ccc2c(c1)C(=CCCN1CCC(O)(c3ccc(Cl)cc3)C(C)(C)C1)c1ccc[n+]([O-])c1CO2 (stereo not drawn) [Example 523, 4-(4-Chloro-phenyl)-1-{3-[7-(1-hydroxy-1-methyl-ethyl)-1-oxy-11H-10-oxa-1-aza-dibenzo[a,d]cyclohepten-5-ylidene]-propyl}-3,3-dimethyl-piperidin-4-ol] | < 1 µM

Reference: patent US8653096B2, “Chemokine receptor antagonists and methods of use thereof” (Millennium Pharmaceuticals, Inc., priority 2001, dated 2014)
